Data reported in patent publication US12258561B2, “Compositions and methods to promote bone formation and their uses including for the treatment of cancer” (THE RESEARCH FOUNDATION FOR THE STATE UNIVERSITY OF NEW YORK, priority 2014, dated 2025).

Assays:
[1] = tested on: SaO52 osteosarcoma tumor cells; test: Assay of cell number (MTT), osteosarcoma cells; format: cell-based; conditions: 1-mM, seventy-two hours
Description: (§1) Methods: Human bone marrow was collected from consenting adult patients undergoing either an elective primary proximal femoral total hip arthroplasty or elective primary distal femoral total knee arthroplasty (n=6, mean age 65) as a part of an IRB approved study. Human MSC were derived from the adherent fraction of whole bone marrow aspirates. Ewing's sarcoma tumor cells (RDES, Hs822 and Hs863) and SaOS2 osteosarcoma tumor cells were obtained from ATCC. Cells were maintained in Dulbecco's Modification of Eagle's Media (DMEM) containing 10% fetal calf serum (v/v) and 1% penicillin-streptomycin-glutamine (PSG; Cellgro, Mediatech).
(§2) Assay of Cell Number: Following the addition of 1-mM naloxone or 1-mM naltrexone, viable cell number was determined with the MTT assay. After 72-hours and 120-hours, MTT (5 mg/ml (w/v), Sigma) was added to each well, incubated for 2-hours, after which the cells lysed with 500-μl of DMSO (Sigma). MTT was measured at 570-nm and the effects of therapy on cell proliferation were determined by normalizing treated wells relative to mean values from non-treated wells: Fold change in cell number=100*[treated cells optical density/mean control optical density].

[2] = tested on: unicortical defect in mouse tibia; test: Opioid antagonist containing collagen implant in unicortical defect model, microCT; format: in vivo, C57BL/6 mice; conditions: 7 days after surgery
Description: Implantation of Opioid Antagonist Containing Collagen Implant into a Unicortical Defect Model: Male 5-week old C57BL/6 mice (n=5 per treatment group for a total of 25 total animals) were used in this study. […] Unicortical defects were surgically administered through a small incision (approximately 3-mm) made just below the knee joint, located on the medial side of the tibia just below the tibial tuberosity on the tibial crest. In 5-weeks old male mice, the physeal plate is clearly visible and the drill bit was placed approximately 1-mm below this point. The drill-bit produces a unicortical defect with dimensions 300-μm diameter×1-mm depth. […] In parallel, a separate group of animals served as non-surgical controls. Mice were euthanized 7-days after surgery, hind limbs were collected and tibias were prepared for micro-CT (μCT) analysis.
MicroCT Analysis of Unicortical Defects: High-resolution images of the tibia were acquired with μCT imaging system (μT40; Scanco Medical). Tibias were scanned at 45-keV with an isotropic voxel size of 12-μm. An analysis region was selected from axial sections to include the entire unicortical defect bounded by the endosteal cortical wall. The volume corrected bone volume (bone volume/total volume; By/Tv), trabecular number (TbN) and trabecular thickness (TbTh) were calculated using the Scanco software.

[3] = tested on: MSC cultures induced to become osteoblasts; test: Osteogenesis: mineral formation in MSC with osteoinduction media (alizarin red-S staining); format: cell-based, human
Description: Methods: Human Bone Marrow was Collected from Consenting Adult Patients undergoing either an elective primary proximal femoral total hip arthroplasty or elective primary distal femoral total knee arthroplasty (n=6, mean age 65) as a part of an IRB approved study. Human MSC were derived from the adherent fraction of cells derived from each whole bone marrow aspirate collected, while the monocyte population was collected from the non-adherent fraction of the bone marrow. The monocyte fraction was enriched through sub-culture with 100-ng/mL recombinant human macrophage colony-stimulating factor (MCSF; Wyeth). In parallel experiments described below, the femurs from 3-week (n=10) and 16-week (n=20) old male mice were collected and then the bone marrow was flushed from the femur according to the following: A 21-gauge needle was inserted into the femoral intramedular canal after the removal of the proximal and distal ends of the femur. Media was then carefully passed through the proximal end of the femur, which forced the bone marrow to pass out of the bone. Finally, the bone marrow pellet was mechanically disassociated using an 18-gauge needle and then passed through a 70-μm mesh filter. These whole bone marrow aspirates were used to generate osteoclasts. Cells were maintained in Dulbecco's Modification of Eagle's Media (DMEM) containing 10% fetal calf serum (v/v) and 1% penicillin-streptomycin-glutamine (PSG; Cellgro, Mediatech). […] The responsible IACUC committee approved all of the animal studies described in this work.
Osteogenesis: Osteogenic potential in MSC was assayed by chemically inducing mineral formation. MSC from at least three human patients were seeded at 5×10^3 cells per well and allowed to become confluent and woven prior to the addition of osteo-induction media. Induction media consisted of DMEM containing 20% FCS (v/v) and 1% PSG supplemented with 25-μg/mL of acscorbic-2-phosphate (Sigma), 100-nM dexamethasone (Sigma) and the following dosing regimen of β-glycerophosphate (BGP; Sigma): 1× media change with 5-mM BGP, 1× media change with 10-mM BGP and 1× media change with 20-mM of BGP. Met5-ligand (0-, [5-μM] 2.87-, or [50-μM] 28.7-μg; Sigma), naloxone (0-, 400-fg, 400-pg, 400-ng, 400-μg; Sigma) or naltrexone (0-, 378-fg, 378-pg, 378-ng, 378-μg; Sigma) was added as follows: 1) 1×, with the first addition of osteo-induction media, 2) 2×, with the first and second addition of osteo-induction media and 3) with each post-induction media change. […] After the appearance of mineral nodules, cells were fixed with 70% ice-cold EtOH (Sigma) and then stained using 40-mM alizarin red-S (pH 4.2, Sigma). Osteogenesis experiments were repeated at least twice for each patient.

[4] = tested on: RDES Ewing's sarcoma of bone tumor cells; test: Assay of cell number (MTT), RDES cells; format: cell-based; conditions: 1-mM, seventy-two hours
Description: as §1, §2

MSC = test: Assay of cell number (MTT) in MSC cultures; format: cell-based, human; conditions: 1-mM
Experimental: as §2

[5] = collagen implant, 25-ng BMP2, 1-mM naltrexone or 1-mM naloxone

C=CCN1CC[C@]23c4c5ccc(O)c4O[C@H]2C(=O)CC[C@@]3(O)[C@H]1C5 [naloxone]
SaO52 osteosarcoma cell number relative to control cultures [1]: decreased significantly | increase in trabecular thickness relative to all other treatment groups ([2]; 1-mM naloxone with collagen implant): approximately 37% | Bv/Tv relative to non-surgical controls ([2]; collagen implant): increased relative to non-surgical controls | trabecular thickness (TbTh) relative to the control non-surgical group ([2]; collagen implant): increased within the defect significantly | increase in Bv/Tv relative to BMP2 treatment group ([2]; collagen implant, 1-mM): 18.2% | increase in Bv/Tv relative to the PBS treated group [2, 5]: 56.5% | increase in Bv/Tv relative to the surgical control group [2, 5]: 83.8% | mineral accumulation, effect against met5 ([3]; 1-mM naloxone added with 5-μM or 50-μM met5 and osteoinduction media): abrogate the anti-osteogenic effects of met5 | mineral accumulation (red staining) ([3]; between 1-μM and 1-mM with osteoinduction media): substantially increased mineral accumulation | mineral accumulation ([3]; continuous dosing, with every media change): slightly depressed | mineral accumulation ([3]; double 'pulse' dose (2x), 1-mM, second 72-hours after the first): substantial increase in mineral accumulation | mineral accumulation ([3]; single 'pulse' dose (1x), 1-mM): substantial increase in mineral accumulation | RDES tumor cell number relative to control cultures [4]: decreased significantly | MSC proliferation (cell number) (MSC; 72-hours): suppressed, but did not stop | MSC proliferation (cell number) (MSC; 120-hours): suppressed, but did not stop
